Where two headings read alike, the source gives them in different places.
Legend:
[1] = system: infarcted heart / CSAR activation; assay: Cardiac plasma extravasation (Evans Blue area); format: in vivo, rat; settings: i.v.
Excerpt: This example illustrates local anti-inflammatory effects of RTX in the infarcted heart. Myocardial ischemia causes the production and release of several metabolites including bradykinin, prostaglandins and protons that stimulate cardiac sympathetic afferent nerve endings leading to increases in BP, HR and sympathetic nerve activity. As cardiac TRPV1-expressing sympathetic afferents also subserve a “dual sensory-efferent” function and release pro-inflammatory neuropeptides, we hypothesized that plasma extravasation and cardiac neuroinflammation follows myocardial ischemia. […] Inflammation in the infarct area may be due to tissue death whereas in peri-infarct and remote areas may be due to cardiac sympathetic afferent mediated neuroinflammation. This may explain why RTX prevented cardiac inflammation in non-infarct areas to a greater extent than in the infarct area.

[2] = system: cardiac sympathetic afferent input; settings: anesthetized CHF dogs; acute epicardial application; cited from earlier work
[3] = system: cardiac sympathetic afferent input; settings: anesthetized CHF rats; acute epicardial application; cited from earlier work

Row | Compound | cardiac plasma extravasation after MI (Evans Blue area) ([1]; Spantide II 0.3 mg/kg, 2 min prior to injection of Evans Blue) | plasma extravasation following CSAR activation by epicardial capsaicin or bradykinin ([1]; acute pretreatment with Spantide II, 0.3 mg/kg) | baseline MAP, HR and RSNA [2] | baseline MAP, HR and RSNA [3]
1 | Spantide II | attenuated | largely be abolished |  | 
2 | CCN(CC)CC(=O)Nc1c(C)cccc1C [lidocaine] |  |  | decreased | decreased

— patent US10729643B2, “Methods for administration and methods for treating cardiovascular diseases with resiniferatoxin” (priority 2013, dated 2020)
